Experimental data taken from ChEMBL document CHEMBL6071165, “Design, synthesis and biological evaluation of plant-derived miliusol derivatives achieve TNBC profound regression in vivo” (Eur J Med Chem, 2024).
Activity calls are given as the source filed them. The rule behind the calls is not given here.

Columns and labels:
BT-549 [1] = assay: Inhibition of cell migration in human BT-549 cells assessed as decrease in MMP-2 level incubated for 24 hrs by Western blot analysis; type: functional, cell-based; conditions: dose 0.5-2 µM
MDA-MB-231 [2] = assay: Induction of apoptosis in human MDA-MB-231 cells assessed as late apoptotic cells at 2 uM incubated for 24 hrs by Annexin V-PI staining based flow cytometric analysis (reference value: 1.83%); type: functional
MDA-MB-231 [3] = assay: Antiproliferative activity against human MDA-MB-231 cells xenografted in female BALB/c mouse model assessed as fold change in upregulation of BIP protein level at 10 mg/kg administered subcutaneously incubated for 24 hrs by Western blot analysis (reference value: 1.00%); type: functional; conditions: route sc
BT-549 [4] = assay: Antiproliferative activity against human BT-549 cells xenografted in female BALB/c mouse model assessed as fold change in upregulation of BIP protein level at 10 mg/kg administered subcutaneously incubated for 24 hrs by Western blot analysis (reference value: 1.00%); type: functional; conditions: route sc
MDA-MB-231 [5] = assay: Inhibition of glycolysis in human MDA-MB-231 cells assessed as reduction in glucose uptake at 0.5 to 2 uM incubated for 24 hrs followed by 2-NBDG staining based flow cytometric analysis; type: functional, cell-based; conditions: dose 0.5-2 µM
[6] = Toxicity in female BALB/c mouse xenografted with human MDA-MB-231 cells assessed as effect on pathological changes in kidney at 5 to 20 mg/kg, sc by H and E staining based analysis; type: organism-based; conditions: in vivo, dose 5-20 mg/kg
MDA-MB-231 [7] = assay: Antiproliferative activity against human MDA-MB-231 cells xenografted in female BALB/c mouse model assessed as fold change in inhibition of PKM2 expression at 20 mg/kg administered subcutaneously incubated for 24 hrs by Western blot analysis (reference value: 1.00%); type: functional; conditions: route sc
BT-549 [8] = assay: Induction of apoptosis in human BT-549 cells assessed as early apoptotic cells at 0.5 uM incubated for 24 hrs by Annexin V-PI staining based flow cytometric analysis (reference value: 0.78%); type: functional
MDA-MB-231 [9] = assay: Antitumor activity against human MDA-MB-231 cells xenografted in female BALB/c mouse model assessed as reduction in tumor volume administered subcutaneously and measured every day; type: functional, cell-based; conditions: dose 5-20 mg/kg, route sc
BT-549 [10] = assay: Induction of apoptosis in human BT-549 cells assessed as upregulation of cleavage of caspase-3 expression at 0.5 to 2 uM incubated for 24 hrs by Western blot analysis; type: functional, cell-based; conditions: dose 0.5-2 µM
MDA-MB-231 [11] = assay: Induction of apoptosis in human MDA-MB-231 cells assessed as upregulation of cleavage of PARP level at 0.5 to 2 uM incubated for 24 hrs by Western blot analysis; type: functional, cell-based; conditions: dose 0.5-2 µM
BT-549 [12] = assay: Inhibition of glycolysis in human BT-549 cells assessed as reduction in lactate production at 0.5 to 2 uM; type: functional, cell-based; conditions: dose 0.5-2 µM
[13] = Toxicity in female BALB/c mouse assessed as change in brain administered subcutaneously measured upto 16 days; type: tissue-based; conditions: in vivo, sc, 384 h, time < 16 day
MDA-MB-231 [14] = assay: Antitumor activity against human MDA-MB-231 cells xenografted in female BALB/c mouse model assessed as reduction of proliferation rate of tumor at 5 to 20 mg/kg administered subcutaneously and measured every day; type: functional, organism-based; conditions: dose 5-20 mg/kg, route sc
[15] = Antiproliferative activity against human MCF-10A cells assessed as inhibition of cell proliferation incubated for 24 hrs by MTT assay; type: toxicity, cell-based
BT-549 [16] = assay: Inhibition of cell migration in human BT-549 cells assessed as reduction in MMP-2 protein level at 1 uM incubated for 24 hrs by DAPI staining based immunofluorescence analysis; type: functional
MDA-MB-231 [17] = assay: Antiproliferative activity against human MDA-MB-231 cells xenografted in female BALB/c mouse model assessed as fold change in cleavage of caspase-3 level at 20 mg/kg administered subcutaneously incubated for 24 hrs by Western blot analysis (reference value: 1.00%); type: functional; conditions: route sc
MDA-MB-231 [18] = assay: Inhibition of glycolysis in human MDA-MB-231 cells assessed as reduction in lactate production at 0.5 to 2 uM; type: functional, cell-based; conditions: dose 0.5-2 µM
BT-549 [19] = assay: Antiproliferative activity against human BT-549 cells xenografted in female BALB/c mouse model assessed as fold change in inhibition of PKM2 expression at 10 mg/kg administered subcutaneously incubated for 24 hrs by Western blot analysis (reference value: 1.05%); type: functional; conditions: route sc
MDA-MB-231 [20] = assay: Induction of apoptosis in human MDA-MB-231 cells assessed as early apoptotic cells at 1 uM incubated for 24 hrs by Annexin V-PI staining based flow cytometric analysis (reference value: 0.42%); type: functional
MDA-MB-231 [21] = assay: Induction of apoptosis in human MDA-MB-231 cells assessed as viable cells at 1 uM incubated for 24 hrs by Annexin V-PI staining based flow cytometric analysis (reference value: 96.5%); type: functional; conditions: read-out: Activity
[22] = target: Eukaryotic translation initiation factor 3 subunit D (Homo sapiens) (UniProt O15371); assay: Induction of thermal stabilization of EIF3D in human BT-549 cells at 1 uM by CETSA analysis; type: cell-based
MDA-MB-231 [23] = assay: Induction of apoptosis in human MDA-MB-231 cells assessed as upregulation of cleavage of caspase-3 expression at 0.5 to 2 uM incubated for 24 hrs by Western blot analysis; type: functional, cell-based; conditions: dose 0.5-2 µM
[24] = Toxicity in female BALB/c mouse xenografted with human MDA-MB-231 cells assessed as effect on pathological changes in liver at 5 to 20 mg/kg, sc by H and E staining based analysis; type: organism-based; conditions: in vivo, dose 5-20 mg/kg
BT-549 [25] = assay: Antiproliferative activity against human BT-549 cells xenografted in female BALB/c mouse model assessed as fold change in upregulation of BIP protein level at 5 mg/kg administered subcutaneously incubated for 24 hrs by Western blot analysis (reference value: 1.00%); type: functional; conditions: route sc
BT-549 [26] = assay: Antiproliferative activity against human BT-549 cells xenografted in female BALB/c mouse model assessed as fold change in upregulation of BIP protein level at 20 mg/kg administered subcutaneously incubated for 24 hrs by Western blot analysis (reference value: 1.00%); type: functional; conditions: route sc
MDA-MB-231 [27] = assay: Induction of apoptosis in human MDA-MB-231 cells assessed as late apoptotic cells at 0.5 uM incubated for 24 hrs by Annexin V-PI staining based flow cytometric analysis (reference value: 1.83%); type: functional
BT-549 [28] = assay: Antiproliferative activity against human BT-549 cells xenografted in female BALB/c mouse model assessed as fold change in inhibition of PKM2 expression at 5 mg/kg administered subcutaneously incubated for 24 hrs by Western blot analysis (reference value: 1.05%); type: functional; conditions: route sc
MDA-MB-231 [29] = assay: Induction of ER stress in human MDA-MB-231 cells assessed as increase in calcium ion content at 2 uM incubated for 24 hrs by Fluo-3AM staining based flow cytometric analysis; type: functional, cell-based
BT-549 [30] = assay: Antiproliferative activity against human BT-549 cells xenografted in female BALB/c mouse model assessed as fold change in cleavage of caspase-3 level at 5 mg/kg administered subcutaneously incubated for 24 hrs by Western blot analysis (reference value: 1.00%); type: functional; conditions: route sc
[31] = Toxicity in female BALB/c mouse xenografted with human BT-549 cells assessed as effect on pathological changes in heart at 5 to 20 mg/kg, sc by H and E staining based analysis; type: organism-based; conditions: in vivo, dose 5-20 mg/kg
[32] = Selectivity ratio of IC50 for antiproliferative activity against human MCF-10A cells assessed as inhibition of cell proliferation incubated for 24 hrs by MTT assay to IC50 for antiproliferative activity against human BT-549 cells assessed as inhibition of cell proliferation incubated for 24 hrs by MTT assay; type: toxicity, cell-based; conditions: MCF-10A cells versus BT-549 cells, read-out: Ratio IC50

Sequence of Eukaryotic translation initiation factor 3 subunit D (Homo sapiens) (O15371 whole entry): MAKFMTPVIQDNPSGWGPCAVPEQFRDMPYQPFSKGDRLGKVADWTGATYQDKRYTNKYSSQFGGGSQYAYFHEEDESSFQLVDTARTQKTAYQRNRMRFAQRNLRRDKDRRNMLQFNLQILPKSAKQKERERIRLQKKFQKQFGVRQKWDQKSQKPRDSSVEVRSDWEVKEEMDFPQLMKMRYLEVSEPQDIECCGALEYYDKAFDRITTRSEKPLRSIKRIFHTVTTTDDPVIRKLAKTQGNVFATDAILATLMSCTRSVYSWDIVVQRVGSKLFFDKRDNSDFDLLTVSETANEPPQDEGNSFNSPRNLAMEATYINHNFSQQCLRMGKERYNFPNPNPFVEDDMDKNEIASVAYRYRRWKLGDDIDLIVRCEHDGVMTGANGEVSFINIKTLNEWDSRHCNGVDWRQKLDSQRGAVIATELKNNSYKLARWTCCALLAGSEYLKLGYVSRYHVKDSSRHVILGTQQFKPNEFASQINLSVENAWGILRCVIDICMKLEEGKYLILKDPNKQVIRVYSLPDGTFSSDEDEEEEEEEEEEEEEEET

CC(C)=CCC/C(C)=C/[C@H]1OC(=O)CC12C[C@H](OC(=O)Cc1ccc(NC(=O)/C=C/c3ccccc3)cc1)C=CC2=O (some centres not stated)
inhibition (BT-549 [1]): Dose-Dependent Effect
Activity (MDA-MB-231 [2]): 42.4%
fold change (FC) (MDA-MB-231 [3]): 2.1
fold change (FC) (BT-549 [4]): 1.9
inhibition (MDA-MB-231 [5]): Active
Activity [6]: Non-Toxic
fold change (FC) (MDA-MB-231 [7]): 0.31
Activity (BT-549 [8]): 0.91%
Activity (MDA-MB-231 [9]): Dose-Dependent Effect
Activity (BT-549 [10]): Active
Activity (MDA-MB-231 [11]): Active
inhibition (BT-549 [12]): Active
Activity [13]: Non-Toxic
Activity (MDA-MB-231 [14]): Active
IC50 at 24 h [15]: 57.1 µM
inhibition (BT-549 [16]): Active
fold change (FC) (MDA-MB-231 [17]): 2.09
inhibition (MDA-MB-231 [18]): Active
fold change (FC) (BT-549 [19]): 0.76
Activity (MDA-MB-231 [20]): 0.97%
viability at 1 µM (MDA-MB-231 [21]): 42%
Activity [22]: Active
Activity (MDA-MB-231 [23]): Active
Activity [24]: Non-Toxic
fold change (FC) (BT-549 [25]): 1.4
fold change (FC) (BT-549 [26]): 2.37
Activity (MDA-MB-231 [27]): 16.4%
fold change (FC) (BT-549 [28]): 0.97
Activity (MDA-MB-231 [29]): Active
fold change (FC) (BT-549 [30]): 1.64
Activity [31]: Non-Toxic
selectivity ratio at 24 h [32]: 57.7
